Measured values as given in ChEMBL document CHEMBL2331526, “Synthesis and characterization of novel quick-release propofol prodrug via lactonization” (Bioorg Med Chem Lett, 2013).
Active and inactive are the calls of the source. The calls are words filed in the database; no cut-off is given here.

Experiments:
[1] = system: Rattus norvegicus; assay: Anesthetic effect in Sprague-Dawley rat assessed as disappearance of the righting reflex at 200 mg/kg, iv; format: functional, organism-based; set-up: dose 200 mg/kg
[2] = Solubility of the compound in water; format: physicochemical; conditions: buffer
[3] = system: Rattus norvegicus; assay: Anesthetic effect in Sprague-Dawley rat assessed as duration time of disappearance of righting reflex to recovery of righting reflex at 2 times ED50, iv; format: functional
[4] = Toxicity in iv dosed Sprague-Dawley rat; format: organism-based; conditions: in vivo
[5] = system: Rattus norvegicus; assay: Anesthetic effect in Sprague-Dawley rat assessed as onset time of disappearance of the righting reflex at 2 times ED50, iv; format: functional
[6] = system: Rattus norvegicus; assay: Anesthetic effect in iv dosed Sprague-Dawley rat assessed as disappearance of the righting reflex; format: functional
[7] = Therapeutic index, ratio of LD50 for Sprague-Dawley rat to ED50 for Sprague-Dawley rat; format: organism-based; conditions: in vivo, read-out: TI
[8] = system: Plasma; assay: Prodrug activation in preheated rat plasma assessed as propofol release at 5 umol/ml measured up to 4 hrs by HPLC analysis; format: cell-free; conditions: 5000 µM
[9] = Drug degradation in aqueous ethanol at 5 umol/ml measured up to 4 hrs by HPLC analysis; format: physicochemical; conditions: buffer, 5000 µM
[10] = Drug degradation in 30% emulsion at 5 umol/ml measured up to 4 hrs by HPLC analysis; format: physicochemical; conditions: 5000 µM
[11] = system: Rattus norvegicus; assay: Toxicity in Sprague-Dawley rat assessed as duration of systemic convulsions at 34 mg/kg, iv; format: organism-based; set-up: dose 34 mg/kg, route intravenous; conditions: in vivo
[12] = system: Rattus norvegicus; assay: Toxicity in Sprague-Dawley rat assessed as duration of systemic convulsions at 40 mg/kg, iv; format: organism-based; set-up: dose 40 mg/kg, route intravenous; conditions: in vivo
[13] = system: Rattus norvegicus; assay: Anesthetic effect in Sprague-Dawley rat assessed as disappearance of the righting reflex at 34 mg/kg, iv; format: functional, organism-based; set-up: dose 34 mg/kg

**Q.** Which Activity [1] does the source give for CCCC(=O)Oc1c(C(C)C)cccc1C(C)C here?
**A.** inactive

**Q.** And the solubility [2]?
**A.** Insoluble

**Q.** Which results are given for CC(C)c1cccc(C(C)C)c1OCOP(=O)([O-])[O-].[Na+].[Na+] [FOSPROPOFOL DISODIUM]?
**A.** Time [3]: 31.04 min; LD50 [4]: 163 mg/kg; Time [5]: 2.17 min; ED50 [6]: 34.8 mg/kg; selectivity ratio [7]: 4.69

**Q.** Which results are given for CC(C)c1cccc(C(C)C)c1OC(=O)CCCO?
**A.** Drug metabolism [8]: Active; Stability [9]: Stable; Time [3]: 24.36 min; LD50 [4]: 81.5 mg/kg; Time [5]: 0.06 min; ED50 [6]: 17.5 mg/kg; selectivity ratio [7]: 4.67; Stability [10]: Stable

**Q.** Which results are given for CC(C)c1cccc(C(C)C)c1O [PROPOFOL]?
**A.** Time [3]: 8.41 min; LD50 [4]: 27.1 mg/kg; Time [5]: 0 min; ED50 [6]: 6.57 mg/kg; selectivity ratio [7]: 4.12

**Q.** Which Activity [11] does the source give for CC(C)c1cccc(C(C)C)c1OCCCCO here?
**A.** Toxic

**Q.** What about the Time [12] of the same compound?
**A.** 3.8 min

**Q.** And the Activity [13]?
**A.** inactive

**Q.** What about the solubility [2] of the same compound?
**A.** Insoluble

**Q.** With CC(C)c1cccc(C(C)C)c1OC(=O)CCCOP(=O)([O-])[O-].[Na+].[Na+] as the compound, how does the Time [3] read?
**A.** 27.49 min

**Q.** What about the LD50 [4] of the same compound?
**A.** 288 mg/kg

**Q.** And the Time [5]?
**A.** 2.11 min

**Q.** What about the solubility [2] of the same compound?
**A.** soluble

**Q.** What about the ED50 [6] of the same compound?
**A.** 44.5 mg/kg

**Q.** What about the selectivity ratio [7] of the same compound?
**A.** 6.48

**Q.** Which results are given for CC(C)c1cccc(C(C)C)c1OC(=O)CCCOC(=O)CN.O=C(O)C(F)(F)F?
**A.** Time [3]: 12.74 min; LD50 [4]: 42.7 mg/kg; Time [5]: 0.26 min; solubility [2]: soluble; ED50 [6]: 14.4 mg/kg; selectivity ratio [7]: 2.96
